For this test, the system named is P388. Put plainly: In vivo antitumor activity against mouse P388 cells at 40 mg/kg. Type of test: functional.
What is called T/C is the ratio of treated to control. Compound `COc1cc([C@@H]2c3cc4c(cc3C[C@H]3COC(=O)[C@@H]32)OCO4)cc(OC)c1OC` [DESOXYPODOPHYLLOTOXIN] showed a T/C of 144%. To `COc1ccc2c(c1OC)[C@@H](c1ccc3c(c1)OCO3)[C@H]1C(=O)OC[C@@H]1C2` [POLYGAMATIN] belongs 144%. In turn, `O=C1OC[C@@H]2Cc3cc4c(cc3[C@@H](c3ccc5c(c3)OCO5)[C@@H]12)OCO4` [POLYGAMAIN] showed a T/C of 144%. In turn, `COc1cc([C@@H]2c3cc4c(cc3[C@H](O)[C@H]3COC(=O)[C@H]23)OCO4)cc(OC)c1OC` [PODOFILOX] returned a T/C of 144%. `COc1cc([C@@H]2c3cc4c(cc3[C@H](O)[C@H]3COC(=O)[C@H]23)OCO4)cc(OC)c1O`: the T/C stood at 144%. To `COc1ccc2c(c1OC)[C@@H](c1ccc3c(c1)OCO3)C1=C(COC1=O)C2` belongs 144%.

Source of the values: ChEMBL document CHEMBL1158648, “The Lignans of Polygala polygama (Polygalaceae): Deoxypodophyllotoxin and Three New Lignan Lactones” (1979).
